Key:
[1] = molecular target: T1, Human KARS (Homo sapiens, UniProt Q15046); experiment: KARS AMP Transcreener FP assay; format: biochemical; conditions: 50 nM human KARS, 20 μM ATP, 50 μM L-Lysine, 1 μM tRNA, 2 h at RT; read-out: Human KARS Transcreener AMP assay Qualified absolute AC50
T1 construct: Human KARS protein (residues 70-584) was expressed and purified; made in house
Excerpt: KARS AMP Transcreener FP Assay to Measure Inhibition of KARS Enzymatic Activity
Lysine-tRNA synthetase (KARS) is an enzyme that catalyzes the reaction of ATP, L-lysine, and tRNA(Lys) to form AMP, diphosphate, and L-lysyl-tRNA(Lys).
The Transceener® AMP/GMP (BellBrook Labs, Madison, WI, USA) is a far red, competitive fluorescence polarization (FP) immunoassay based on the detection of AMP, which is one of the products of aminoacylation of tRNA. In this assay, a fluorescently labeled AMP (AMP Alexa Fluor 633) is used as the tracer that can be recognized by a specific antibody. In the absence of AMP, all the tracer molecules are bound to the antibodies leading to large polarization. The AMP product generated by the enzyme reaction will compete with the tracer for binding to the antibody which leads to a decrease in the polarization. As such, the enzyme activity is inversely proportional to FP values.
Human KARS protein (residues 70-584) was expressed and purified using a similar protocol to what is described in literature (Crystal structure of tetrameric form of human lysyl-tRNA synthetase: Implications for multisynthetase complex formation Guo, M., Ignatov, M., Musier-Forsyth, K., Schimmel, P., Yang, X. L. (2008) Proc. Natl. Acad. Sci. Usa 105: 2331-2336).
The KARS enzyme assay was performed in a final volume of 10 μL per well of Corning Costar 384 well plate, flat bottom, black non-treated plate. The final assay concentration was 20 mM HEPES pH 7.5, 1 mM DTT, 50 nM human KARS, 20 μM ATP, 50 μM L-Lysine, 1 μM tRNA and 8 mM MgCl2. Compounds were serial diluted 1:3 in DMSO in a master plate to generate a 10 concentration points dose response with maximum concentration of 10 mM. 50 nL from compound master plate were spotted in each well of a 384 black plate (Corning 3573), and 5 μL of enzyme mixture containing 100 nM KARS diluted in assay buffer (20 mM HEPES pH 7.5 and 1 mM OTT) were added. The reaction was started by adding 5 μL of the substrate mixture containing 40 μM ATP (final 20 μM ATP), 100 μM L-Lysine (final 50 μM), 2 μM tRNA (final 1 μM), 16 mM MgCl2 (final 8 mM MgCl2) diluted in assay buffer (20 mM HEPES pH 7.5 and 1 mM OTT). The mixtures were mixed and incubated for 2 h at RT before the termination of the reaction.
Transcreener® stop and detection buffers were prepared (1× stop buffer [final: 0.5×], 2 nM Tracer [final: 1 nM] and 5 μg/ml anti-AMP antibody [final: 2.5 μg/ml] in deionized water) and 10 μL of the stop and detection mix were added to the reaction wells, mixed for a minute and centrifuged at 1000 rpm for 10 seconds. The plates were read after incubating at RT for 30-60 min using Infinite® M1000 with the following settings: Excitation wavelength: 635 nm; Emission wavelength: 680 nm. FP values of DMSO controls were used to normalize the data and calculate IC50s of compounds using the Helios Software suite.

[2] = test system: NCI-H1944 (KEAP1 mutant, AKR1C3 expressing) cell line derived lung cancer xenografts; experiment: PK/PD in NCI-H1944 xenograft (tumor DDIT3 and EGR1 mRNA induction); format: in vivo, mice; conditions: single oral administration
Method: Compound 40 Dose Dependent Pharmacokinetics and Pharmacodynamic (PK/PD) Changes in the KEAP1 Mutant AKR1C3 Expressing Human Lung Cancer Xenograft NCI-H1944
The PK/PD relationship of Compound 40 was assessed in nude mice with established subcutaneous NCI-H1944 (KEAP1 mutant, AKR1C3 expressing) cell line derived lung cancer xenografts (FIG. 2). After a single oral administration of Compound 40, blood and tumor were collected to explore the PK profile of Compound 40 levels in blood and tumor. Compound 152, the active metabolite of the prodrug Compound 40 that inhibits KARS was also measured in tumor and blood. The PK data were compared to the tumor PD marker readouts of DDIT3 and EGR1 mRNA induction, downstream transcriptional readouts of KARS inhibition.

[3] = test system: NCI-H1944 human lung cancer xenograft; experiment: In vivo efficacy in NCI-H1944 xenograft; set-up: species or system mice
Method: Compound 40 Dose Dependent In Vivo Efficacy in High AKR1C3 Expressing Human Lung Cancer Xenograft NCI-H1944
Anti-cancer efficacy of Compound 40 was assessed in the NCI-H1944 human lung cancer xenograft model in mice that expresses high levels of AKR1C3. NCI-H1944 tumors were established in nude female mice by injection of a tumor cells subcutaneously. When tumors reached approximately 200 mm^3, mice were randomized according to tumor volume into treatment groups (n=8 per group) on Day 16.

T1 sequence (Q15046 70-584): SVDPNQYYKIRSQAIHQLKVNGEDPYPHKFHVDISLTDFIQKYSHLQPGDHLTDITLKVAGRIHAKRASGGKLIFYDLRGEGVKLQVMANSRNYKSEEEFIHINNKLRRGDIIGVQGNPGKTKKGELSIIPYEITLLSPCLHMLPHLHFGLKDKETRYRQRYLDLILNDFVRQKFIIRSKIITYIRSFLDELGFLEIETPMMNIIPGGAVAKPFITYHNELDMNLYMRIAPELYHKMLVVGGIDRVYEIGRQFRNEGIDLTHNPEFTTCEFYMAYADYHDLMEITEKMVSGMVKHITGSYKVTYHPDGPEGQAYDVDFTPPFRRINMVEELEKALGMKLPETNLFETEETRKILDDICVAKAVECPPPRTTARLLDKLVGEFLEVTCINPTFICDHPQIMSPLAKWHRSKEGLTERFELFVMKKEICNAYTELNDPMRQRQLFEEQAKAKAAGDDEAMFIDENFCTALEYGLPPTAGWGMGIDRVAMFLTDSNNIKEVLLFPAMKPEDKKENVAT

Question: O=C1CC2(CCN(C(=O)NCc3ccc(F)cc3)CC2)Nc2ccc(F)cc21 [Example 40] was tested. Which AC50 [1] did it give?
Answer: The AC50 was > 10 µM.

Question: What about the “duration of the induction of DDIT3 and EGR1 mRNA levels” value ([2]; dose escalation, NCI-H1944 xenografts) of the same compound?
Answer: Its value is “increased with dose escalation”.

Question: What about the “tumor PD markers (DDIT3 and EGR1 mRNA induction) after dosing” value ([2]; nude mice with NCI-H1944 xenografts) of the same compound?
Answer: Its value is “remained elevated for 24 hours post-dose”.

Question: What about the ΔT/ΔC ([3]; 75 mg/kg po, qd, Day 44) of the same compound?
Answer: The ΔT/ΔC was 4.9%.

Question: What about the “Tumor response” value ([3]; 75 mg/kg qd po) of the same compound?
Answer: The value was “Tumor stasis”.

Question: And the Regression ([3]; 150 mg/kg po, qd, Day 44)?
Answer: The Regression was 98.5%.

Question: And the Regression ([3]; 300 mg/kg po, qd, Day 44)?
Answer: The Regression was 100%.

Question: And the “Tumor response” value ([3]; all dose levels)?
Answer: The value was “efficacy benefit”.

Question: And the “Tumor response” value ([3]; dose levels above 75 mg/kg qd, po)?
Answer: The value was “deep tumor regression”.

Reference: US11970497B2, “Tricyclic AKR1C3 dependent KARS inhibitors” (Novartis AG, priority 2019, dated 2024)
